Measurements reported in US6932968B1, “Erythropoietin (EPO) peptides and antibodies directed against these” (Dade Behring Marburg GmbH, priority 1989, dated 2005).

Test: Immunization of rabbits with peptide-KLH conjugates, antibody detection by solid-phase ELISA / Western Blot
Assay type: in vivo
Settings: high-titer epitope-specific anti-EPO antibodies
Excerpt: In order to produce antibodies specific for EPO peptides, the peptide-KLH conjugates were emulsified with adjuvants and injected into rabbits in accordance with a 5-week immunization regimen. After this time the animals had produced specific antibodies and were bled.
A solid-phase ELISA was used to assay the sera for peptide or EPO specificity. The content of peptide-specific and EPO-specific antibodies in the antisera or in the antibody fractions which had been purified by affinity chromatography was determined in plastic microtiter plates, which were coated with purified EPO or with EPO peptides, using an enzyme-coupled anti-rabbit-Ig antiserum. In parallel with this, the antibodies were examined in a Western Blot to detect the specific EPO bands of 34–38 kDa.
Rabbits were immunized with […] of antigen per animal on each occasion for a period of 5 weeks. At the first immunization, the animals each received 0.4 mg of antigen in complete Freund's adjuvant (CFA) subcutaneously at 8 immunization sites in the vicinity of the lymph nodes. This was followed 2 weeks later by subcutaneous immunization with 0.8 mg of antigen/animal in CFA. After a further 2 weeks, the animals received intravenous administration of 0.1 mg of antigen in Aerosil on each of 5 consecutive days. 3 days later they were bled, and the individual antisera were obtained.
20 μg/ml EPO or EPO-specific peptides were coupled in carbonate buffer in plastic microtiter plates at 4° C. overnight. Before carrying out the assays, the plates were washed twice with PBS, saturated with PBS/0.5% BSA for 30 minutes and then washed three times with PBS.
The plates saturated with BSA were incubated with dilutions of the anti-EPO rabbit antisera or of the purified antibody fractions for 2 hours. After this time they were washed with PBS and incubated with anti-rabbit Ig anti-serum, which was coupled to alkaline phosphatase, for 2 hours. […] The reaction was stopped with 1 M NaOH after one hour, and the optical density at […] was measured. […]

Sequence | Immunogenicity of the EPO peptide
CDSRVLERYLLEAKEAE [P4/1, EPO peptide, amino-acid positions 7 to 23] | highly immunogenic
KRMEVGQQAVEV [P3/1, EPO peptide, amino-acid positions 52 to 63] | highly immunogenic
SSQPWEPLQLHV [P1/1, EPO peptide, amino-acid positions 84 to 95] | highly immunogenic
